Results from patent US20140206624A1, “TREATMENT OF LEUKEMIA” (THE BRIGHAM AND WOMEN'S HOSPITAL, INC., priority 2011, published 2014).

Experiments:
Format in all cases: in vivo, mouse
[1] = test system: FoxO1, FoxO3, FoxO4; test: Excision efficiency (Real Time PCR, western blot) in BM
Source text: RNA recovered from BM was converted to cDNA and then analyzed for FoxO1 (FIG. 10C.), FoxO3 (FIG. 10D.), FoxO4 (FIG. 10E.) and GAPDH expression by quantitative Real Time PCR. Each FoxO gene expression is normalized with GAPDH expression.
BM recovered from one saline-treated FoxO1/3/4^floxed; MLL-AF9; Mx1-Cre+ mouse (lane 1) five FoxO1/3/4^floxed; MLL-AF9; Mx1-Cre+ mice treated with pI-pC (lanes 2-6) that succumbed to AML-related death were subjected to Western blot with FoxO3 (75D8) and Tubulin antibodies.

[2] = test system: MLL-AF9 induced AML; test: MLL-AF9 BMT assay, WBC monitoring and survival/latency
Source text: WBC analysis of peripheral blood collected every 4-14 days post-transplant from Mx1-Cre+ saline and pI-pC-treated mice. Data is independent from Panel C (n=4).
Kaplan-Meier survival curve analysis of recipient mice Mx1-Cre− transplanted and treated as described above; n=6, p=0.6899.
Kaplan-Meier survival curve analysis of recipient mice Mx1-Cre+ transplanted and treated as described above. (p=0.0009; n=10).
After transduction, infected cells were transplanted into lethally irradiated (2 doses of 450rad gIR separated by 12 hours) F1 FVB/C57/Bl6 mice. Recipient mice developed leukemia within 70-80 days with a median survival of 77 days. Mononuclear BM cells recovered from leukemic mice were then transplanted into secondary sub-lethally irradiated recipients. Fourteen days following transplant, secondary recipients were administered intra-peritoneally three doses of saline or 12.5 mg/kg pI-pC (GE Healthcare Life Sciences) every 2 days. Mice were then monitored for external (i.e. moribund) and internal (white blood cell counts) signs of leukemia.
To distinguish whether disrupting FoxO1/3/4 expression eliminated MLL-AF9 leukemia or merely delayed the onset, FoxO1/3/4^floxed; Mx1-Cre−; MLL-AF9 and FoxO1/3/4^floxed; Mx1-Cre+; MLL-AF9 leukemic cells were separately transplanted into sub-lethally irradiated recipients. Fourteen days post-transplant, mice were administered either pI-pC or saline and subsequently monitored daily for clinical signs of leukemia. Peripheral blood from recipient mice was collected and analyzed for WBC counts every 4-14 days. Mice were euthanized upon displaying external morbidity and/or elevated WBC counts. […] However, despite efficient excision of FoxO1/3/4 (FIGS. 10C-10F) the majority of mice eventually succumbed to leukemia (FIG. 9F).

[3] = test system: leukemia-initiating cell (LIC); test: Limited dilution assay of LIC function in tertiary recipients
Source text: Using the same experimental set-up described in panels G leukemia BM cells Saline (MLL-AF9; FoxO1/3/4^+/+, panel H) versus pI-pC (MLL-AF9; FoxO1/3/4^Δ/Δ, panel I) were by isolated by flow cytometry and subsequently transplanted into tertiary recipients at various cell numbers: 300 (n=6), 3,000 (n=6), 30,000 (n=4) and 300,000 (n=4). Animals were then monitored weekly and euthanized upon presentation of external (moribund) and internal (e.g. WBC) signs of AML. The LIC frequencies of each condition are located in the bottom left corner (H. LICfreq^+/+=1:20,688 and I. LICfreq^Δ/Δ=1: 269,310).
As described in FIG. 5, MLL-AF9-induced AML was generated in a FoxO1/3/4^floxed; Mx1-Cre+ genetic background that was subsequently transplanted into secondary mice. Fourteen days post-transplant, secondary recipients were administered with saline or pI-pC and monitored for the development of AML (FIG. 5). BM cells recovered from saline (Ctrl) and pI-pC treated mice that succumbed to AML were then transplanted into tertiary recipients and evaluated for the development of AML (p=0.0061; n=8).
Log-Rank (Mantel-Cox) test was used to determine p values for all Kaplan-Meier survival curve analyses. Unpaired, two-tailed student's t tests were used for all analyses comparing two experimental groups. Poisson statistics was used to determine the leukemia-initiating cell frequency in vivo in FIGS. 9H and 9I as well as in vitro in FIGS. 4E and 4F.
To test whether loss of FoxO1/3/4 also diminished LIC function, a limited dilution assay was performed for leukemia cells immediately following FoxO1/3/4 deletion. Briefly, equal numbers of leukemic BM cells were recovered from FoxO1/3/4^floxed; Mx1-Cre+; MLL-AF9 mice seven days following pI-pC or saline treatment. Recipient mice were then injected with 300, 3,000, 30,000 or 300,000 cells of each condition. Ninety days following transplantation, 100%, 75% and 17% of mice that received 300,000, 30,000 or 3,000 cells, respectively, from saline-treated FoxO1/3/4^floxed; Mx1-Cre+; MLL-AF9 succumbed to AML corresponding to a LIC frequency of 1:20,688 (FIG. 9H). In contrast, 75% of mice transplanted with 300,000 pI-pC-treated FoxO1/3/4^floxed; Mx1-Cre+; MLL-AF9 donor cells developed AML whereas 100% of mice from each other cell dose were alive at day 90.

[4] = test system: c-Jun, FoxO3 phosphorylation; test: Western blot of BM cells from mice that succumbed to AML; conditions: pI-pC-treated Mx1-Cre+ mice that died of AML despite deletion of FoxO1/3/4
Source text: BM cells recovered from mice that succumbed to control or myrAKT-expressing MLL-AF9-induced AML (refer to FIG. 10G) were subjected to western blot with antibodies that specifically recognize AKT, Tubulin or the phosphorylated forms of FoxO3 (pFoxO3^S256) c-JUN (pc-JUN^S63).
BM cells recovered from mice that succumbed MLL-AF9-induced AML (refer to FIG. 5F) that were wild type or null for FoxO1/3/4 were subjected to western blot with antibodies that specifically recognize AKT, Tubulin or the phosphorylated forms of FoxO3 (pFoxO3^S256) c-JUN (pc-JUN^S63).
Based on the observation that the JNK/c-JUN signaling pathway is activated in response to FOXO inhibition (directly or via AKT activation), whether the activation of this pathway was also initiated in vivo was examined. To this end, the phosphorylation status of c-Jun in BM cells of saline and pI-pC-treated FoxO1/3/4^floxed; Mx1-Cre+; MLL-AF9 mice (FIG. 9F) that developed overt AML was examined. Enhanced pc-Jun^Ser63 in 75% of mice that died of AML despite efficient deletion of FoxO1/3/4 (FIGS. 13A and 10C-10F) was observed. The phosphorylation status of BM cells derived from control and myrAKT-expressing leukemic mice from FIG. 10H was evaluated.

polyinosine-polycytidyline [pI-pC] was tested, and the “FOXO1/3/4 expression (quantitative Real Time PCR, normalized with GAPDH)” value ([1]; BM RNA) was “suppression of FOXO1/3/4 expression”, the “FOXO3 (Western blot)” value ([1]; BM of Mx1-Cre+ mice that succumbed to AML) was “below detection” and the “latency for the onset of AML” value ([2]; Mx1-Cre+ leukemic cells, excision of FoxO1/3/4) was “significantly longer latency”. For the same substance, the WBC counts ([2]; Mx1-Cre+ mice, blood every 4-14 days) was “lower WBC counts than saline-treated controls”, the “mice disease-free up to 5 months post-excision” value ([2]; Mx1-Cre+, n=10) was 20% and the “increase in median survival” value ([3]; 300,000 donor cells, pI-pC vs saline-treated) was about 2 fold. For the same substance, the median survival ([3]; 300,000 pI-pC-treated donor cells, n=4) was 82 days, the “mice that developed AML” value ([3]; 300,000 pI-pC-treated donor cells, ninety days following transplantation) was 75% and the “mice alive at day 90” value ([3]; each other cell dose (300, 3,000, 30,000) of pI-pC-treated donor cells) was 100%. For the same substance, the “LIC frequency lower than the control group” value ([3]; pI-pC vs saline) was 13 fold, the “latency in recipients of donor cells from mice of FIG. 9F” value ([3]; pI-pC vs saline-treated donors (FIG. 10B)) was “extended latency” and the “mice with enhanced pc-Jun^Ser63” value [4] was 75%.
